Data reported in the supplement of paper PMC9663587.

How the values were obtained:
Assay in all cases: GR value, 72 h; higher = faster growth (1 = untreated, <0 = killing);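 further: breast cancer and non-malignant breast epithelial lines, nine half-log doses, viable cells counted by Hoechst and LIVE/DEAD dye imaging versus time-zero plates and DMSO controls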
Torin2 = compound: C1=CC(=CC(=C1)N2C(=O)C=CC3=CN=C4C=CC(=CC4=C32)C5=CN=C(C=C5)N)C(F)(F)F [Torin2]
Ipatasertib/GDC0068 = compound: CC(C)NC[C@@H](C(=O)N1CCN(c2ncnc3c2[C@H](C)C[C@H]3O)CC1)c1ccc(Cl)cc1 [Ipatasertib/GDC0068]
INK128/MLN0128 = compound: CC(C)n1nc(-c2ccc3oc(N)nc3c2)c2c(N)ncnc21 [INK128/MLN0128]
FMF-03-145-1 = compound: CCC(=O)Nc1ccc(C(=O)Nc2ccc(Nc3ncc4c(n3)N(C)c3ccc(C)cc3C(=O)N4C)cc2)cc1 [FMF-03-145-1]
BSJ-01-175 = compound: CN(C)C/C=C/C(=O)Nc1ccc(O[C@@H]2CCC[C@@H](Nc3ncc(Cl)c(-c4c[nH]c5ccccc45)n3)C2)cc1 [BSJ-01-175]
ABT-737 = compound: CN(C)CC[C@H](CSc1ccccc1)Nc1ccc(S(=O)(=O)NC(=O)c2ccc(N3CCN(Cc4ccccc4-c4ccc(Cl)cc4)CC3)cc2)cc1[N+](=O)[O-] [ABT-737]
Saracatinib/AZD0530 = compound: CN1CCN(CCOc2cc(OC3CCOCC3)c3c(Nc4c(Cl)ccc5c4OCO5)ncnc3c2)CC1 [Saracatinib/AZD0530]; details: 0.001 µM

**Q.** With AU565 as the cell line, how does the GR value (Torin2; 0.0001 µM) read?
**A.** 1.06 GR

**Q.** And the GR value (Torin2; 0.0003162 µM)?
**A.** 1.02 GR

**Q.** And the GR value (Torin2; 0.001 µM)?
**A.** 0.884 GR

**Q.** What about the GR value (Torin2; 0.003162 µM) of the same cell line?
**A.** 0.698 GR

**Q.** And the GR value (Torin2; 0.01 µM)?
**A.** 0.222 GR

**Q.** What about the GR value (Torin2; 0.03162 µM) of the same cell line?
**A.** -0.0323 GR

**Q.** What about the GR value (Torin2; 0.1 µM) of the same cell line?
**A.** -0.152 GR

**Q.** And the GR value (Torin2; 0.3162 µM)?
**A.** -0.239 GR

**Q.** What about the GR value (Torin2; 1 µM) of the same cell line?
**A.** -0.395 GR

**Q.** What about the GR value (Ipatasertib/GDC0068; 0.001 µM) of the same cell line?
**A.** 1.03 GR

**Q.** And the GR value (Ipatasertib/GDC0068; 0.003162 µM)?
**A.** 1.08 GR

**Q.** And the GR value (Ipatasertib/GDC0068; 0.01 µM)?
**A.** 1.03 GR

**Q.** And the GR value (Ipatasertib/GDC0068; 0.03162 µM)?
**A.** 0.996 GR

**Q.** And the GR value (Ipatasertib/GDC0068; 0.1 µM)?
**A.** 0.976 GR

**Q.** What about the GR value (Ipatasertib/GDC0068; 0.3162 µM) of the same cell line?
**A.** 0.809 GR

**Q.** And the GR value (Ipatasertib/GDC0068; 1 µM)?
**A.** 0.772 GR

**Q.** What about the GR value (Ipatasertib/GDC0068; 3.162 µM) of the same cell line?
**A.** 0.55 GR

**Q.** What about the GR value (Ipatasertib/GDC0068; 10 µM) of the same cell line?
**A.** 0.289 GR

**Q.** And the GR value (INK128/MLN0128; 0.0003162 µM)?
**A.** 0.889 GR

**Q.** What about the GR value (INK128/MLN0128; 0.001 µM) of the same cell line?
**A.** 0.931 GR

**Q.** And the GR value (INK128/MLN0128; 0.003162 µM)?
**A.** 0.62 GR

**Q.** And the GR value (INK128/MLN0128; 0.01 µM)?
**A.** 0.249 GR

**Q.** What about the GR value (INK128/MLN0128; 0.03162 µM) of the same cell line?
**A.** 0.0411 GR

**Q.** What about the GR value (INK128/MLN0128; 0.1 µM) of the same cell line?
**A.** -0.0783 GR

**Q.** And the GR value (INK128/MLN0128; 0.3162 µM)?
**A.** -0.0838 GR

**Q.** And the GR value (INK128/MLN0128; 1 µM)?
**A.** -0.184 GR

**Q.** And the GR value (INK128/MLN0128; 3.162 µM)?
**A.** -0.48 GR

**Q.** And the GR value (FMF-03-145-1; 0.0001 µM)?
**A.** 0.967 GR

**Q.** And the GR value (FMF-03-145-1; 0.0003162 µM)?
**A.** 0.975 GR

**Q.** And the GR value (FMF-03-145-1; 0.001 µM)?
**A.** 0.99 GR

**Q.** What about the GR value (FMF-03-145-1; 0.003162 µM) of the same cell line?
**A.** 0.971 GR

**Q.** And the GR value (FMF-03-145-1; 0.01 µM)?
**A.** -0.215 GR

**Q.** And the GR value (FMF-03-145-1; 0.03162 µM)?
**A.** -0.0803 GR

**Q.** And the GR value (FMF-03-145-1; 0.1 µM)?
**A.** -0.163 GR

**Q.** What about the GR value (BSJ-01-175; 0.001 µM) of the same cell line?
**A.** 0.954 GR

**Q.** And the GR value (BSJ-01-175; 0.003162 µM)?
**A.** 0.82 GR

**Q.** And the GR value (BSJ-01-175; 0.01 µM)?
**A.** 0.24 GR

**Q.** And the GR value (BSJ-01-175; 0.03162 µM)?
**A.** -0.144 GR

**Q.** What about the GR value (BSJ-01-175; 0.1 µM) of the same cell line?
**A.** -0.164 GR

**Q.** And the GR value (BSJ-01-175; 0.3162 µM)?
**A.** -0.381 GR

**Q.** And the GR value (BSJ-01-175; 1 µM)?
**A.** -0.45 GR

**Q.** And the GR value (BSJ-01-175; 3.162 µM)?
**A.** -0.505 GR

**Q.** And the GR value (BSJ-01-175; 10 µM)?
**A.** -0.777 GR

**Q.** And the GR value (ABT-737; 0.001 µM)?
**A.** 0.926 GR

**Q.** And the GR value (ABT-737; 0.003162 µM)?
**A.** 1.05 GR

**Q.** What about the GR value (ABT-737; 0.01 µM) of the same cell line?
**A.** 1.03 GR

**Q.** And the GR value (ABT-737; 0.03162 µM)?
**A.** 1.04 GR

**Q.** What about the GR value (ABT-737; 0.1 µM) of the same cell line?
**A.** 1.04 GR

**Q.** What about the GR value (ABT-737; 0.3162 µM) of the same cell line?
**A.** 1.02 GR

**Q.** And the GR value (ABT-737; 1 µM)?
**A.** 0.957 GR

**Q.** What about the GR value (ABT-737; 3.162 µM) of the same cell line?
**A.** 0.86 GR

**Q.** What about the GR value (ABT-737; 10 µM) of the same cell line?
**A.** 0.279 GR

**Q.** And the GR value (Saracatinib/AZD0530)?
**A.** 1 GR
